Data taken from patent US20230285570A1, “THERAPEUTICALLY USEFUL CURE-PRO MOLECULES FOR E3 LIGASE MEDIATED DEGRADATION OF PROTEINS, AND METHODS OF MAKING AND USING THEM” (CORNELL UNIVERSITY, priority 2020, published 2023).
Entries after “also recorded” stand apart in the source; their conditions may differ. Values belong to the molecule of their own block, whether it stands above or below them.

How the values were obtained:
[1] = target: T1, c-MYC (Homo sapiens, UniProt P01106); experiment: Summary of C-MYC degradation by CURE-PRO pairs, estimated from Western Blot or WES; type: cell-based; set-up: endogenous in cells; host or cells: HT29; settings: for Degradation of C-MYC, combination with MDM2 ligand 8310: Table 11, aromatic 1,2-diol MYC ligand + 8310; for Degradation of C-MYC, combination with MDM2 ligand 8312: Table 11, aromatic 1,2-diol MYC ligand + 8312; for Degradation of C-MYC, combination with CRBN ligand 8046: Table 7, aryl-boronic acid MYC ligand + 8046; for Degradation of C-MYC, combination with CRBN ligand 8047: Table 7, aryl-boronic acid MYC ligand + 8047; for Degradation of C-MYC, combination with CRBN ligand 8048: Table 10, aromatic 1,2-diol MYC ligand + 8048; for Degradation of C-MYC, combination with CRBN ligand 8049: Table 10, aromatic 1,2-diol MYC ligand + 8049; for Degradation of C-MYC, combination with VHL ligand 8297: Table 12, aromatic 1,2-diol MYC ligand + 8297; for Degradation of C-MYC, combination with VHL ligand 8298: Table 12, aromatic 1,2-diol MYC ligand + 8298
Experimental: (§1) Namalwa, Ramosm HeLa, MCF7, or HT29 HCT116 cells (2.5-3×10^6) were treated for 24 hours with the indicated compounds solubilized in DMSO. The cells were washed in ice-cold PBS and were then lysed in RIPA lysis buffer (150 mM NaCl, 5 mM EDTA, 1% NP-40, 0.5% sodium deoxycholate, 0.1% SDS, 50 mM Tris, pH 8.0.) with Roche protease inhibitor complete cocktail and phosphatase inhibitors (10 mM sodium fluoride, 10 mM sodium pyrophosphate, 1 mM sodium orthovanadate and 20 mM β-glycerophosphate). The total protein concentrations were determined by Bradford Protein Assay (Pierce) and 10-20 μg of protein was loaded onto 4-15% Tris-Glycine gradient gels (Biorad). After standard gel electrophoresis, the separated proteins were transferred to PVDF membrane by wet transfer. The immunoblots were then blocked for 1 hour in 5% skim milk in TBST or 5% BSA in TBST, according to manufacturer's instructions, before an overnight incubation at 4° C. with indicated antibodies and membranes. Membranes were then incubated with the appropriate horseradish peroxidase-conjugated secondary antibodies (1:5,000 dilution) for 1 h at room temperature and the bands were visualized using the Clarity Max Western ECL Substrate (Biorad) and the ChemiDoc Imaging System (Biorad). Signal was detected with ECL Western Blotting Substrate (Pierce) and X-ray film processed with a Konica SRX-101 X-ray film processor or captured by Bio-Rad's Chemidoc Imaging system.
WES Simple analysis was performed on WES system (ProteinSimple-Biotechne) according to the manufacturer's instructions. Total protein concentrations of cell lysates were determined by the Pierce BCA kit (Thermo Fisher). 3 μL of 0.3 μg/μL of the protein lysate was loaded onto a 12- to 230-kDa WES assay plate (ProteinSimple) where 300 nL sample was withdrawn through a capillary, subjected to electrophoretic separation of proteins by size, and followed by the simultaneous, HRP-based detection of proteins using the Anti-Rabbit Detection Module (Proteinsimple: #DM-001). The electropherograms were checked then the automatic peak detection was manually corrected if it was required.
A black check mark indicates efficacy of 30% to 70% or higher protein degradation.

[2] = target: T1, c-MYC; experiment: CURE-PRO-mediated c-MYC degradation in HT29 cells, Western blot; type: cell-based; set-up: endogenous in cells; host or cells: HT29
Experimental: as §1
HT29 cells (2.5×10^6) were treated for 24 h with the compounds solubilized in DMSO. Compounds were added at 10 nM-10 μM each, as indicated in the description of the figures. Standardized protein samples were electrophoresed and imaged as described in the immunoblotting section above. c-MYC monomers (10058-F4 derivatives comprising catechol linkers), and CRBN ligands, 8048 and 8049 (pomalidomide derivatives comprising boronic acid linkers) combined in a 1:1 ratio.
HT29 cells (2.5×10^6) were treated for 24 h with the compounds solubilized in DMSO. Compounds were added at 100 nM-10 μM each.
(§2) HT29 cells (2.5×10^6) were treated for 24 h with the compounds solubilized in DMSO. Compounds were added at 100 nM-10 μM each. Standardized protein samples were electrophoresed and imaged as described in the immunoblotting section above. c-MYC monomer, MYC-E1, (a 10058-F4 derivative comprising boronic acid linkers), and CRBN ligands, 8046, 8047 and 8066 (pomalidomide derivatives comprising diol linkers) combined in a 1:1 ratio.
as §2, with “monomers, MYC-E6 (FIG. 90), MYC-E10 (FIG. 91), and MYC-E16 (FIG. 92) (10074-G5 derivatives” for “monomer, MYC-E1, (a 10058-F4 derivative”
(§3) HT29 cells (2.5×10^6) were treated for 24 h with the compounds solubilized in DMSO. Compounds were added at 10 nM-10 μM each. Standardized protein samples were electrophoresed and imaged as described in the immunoblotting section above. c-MYC monomer, MYC-N16 (FIG. 93) (10074-G5 derivatives comprising diol linkers), and VHL ligands, 8297 and 8298 (VH-298 derivatives comprising boronic acid linkers) were combined in a 1:1 ratio.
as §3, with “monomers, MYC-E7” for “monomer, MYC-N16”, “96), MYC-E10 (FIG. 97), and MYC-E17 (FIG. 98),” for “93)”, “boronic acid” for “diol”, “diol” for “boronic acid”

[3] = 1:1 with CRBN ligand 8046, HT29, 24 h, 100 nM-10 μM each
[4] = 1:1 with CRBN ligand 8047, HT29, 24 h, 100 nM-10 μM each
[5] = 1:1 with CRBN ligand 8066, HT29, 24 h, 100 nM-10 μM each
[6] = 1:1 with VHL ligand 8298, HT29, 24 h, 10 nM-10 μM each
[7] = 1:1 with CRBN ligand 8048, HT29, 24 h, 10 nM-10 μM each
[8] = c-MYC monomer alone, HT29, 24 h, 10 nM-10 μM

T1 sequence (P01106 whole entry): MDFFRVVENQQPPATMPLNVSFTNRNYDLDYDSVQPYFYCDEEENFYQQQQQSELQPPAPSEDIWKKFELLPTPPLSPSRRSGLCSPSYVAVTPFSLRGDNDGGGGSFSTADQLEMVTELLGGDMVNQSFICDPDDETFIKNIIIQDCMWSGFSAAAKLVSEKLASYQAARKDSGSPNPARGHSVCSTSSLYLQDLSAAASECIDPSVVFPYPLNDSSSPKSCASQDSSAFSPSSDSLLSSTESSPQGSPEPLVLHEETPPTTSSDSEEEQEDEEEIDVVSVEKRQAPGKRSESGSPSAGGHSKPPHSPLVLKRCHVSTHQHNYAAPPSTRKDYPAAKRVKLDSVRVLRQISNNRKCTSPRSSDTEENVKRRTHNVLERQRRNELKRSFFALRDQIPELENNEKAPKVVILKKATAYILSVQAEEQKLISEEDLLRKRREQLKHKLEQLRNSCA

SMILES: O=C(NCc1cccc(O)c1O)c1ccc(Nc2ccc([N+](=O)[O-])c3nonc23)cc1 [MYC- N18]
Degradation of C-MYC, combination with MDM2 ligand 8310 [1]: √ (A black check mark indicates efficacy of 30% to 70% or higher protein degradation)

SMILES: O=C(NCCNC(=O)c1ccccc1Nc1ccc([N+](=O)[O-])c2nonc12)c1ccc(O)c(O)c1 [MYC- N21]
Degradation of C-MYC, combination with MDM2 ligand 8310 [1]: √ (A black check mark indicates efficacy of 30% to 70% or higher protein degradation)

SMILES: O=C(NCCNC(=O)c1cccc(O)c1O)c1ccccc1Nc1ccc([N+](=O)[O-])c2nonc12 [MYC- N22]
Degradation of C-MYC, combination with MDM2 ligand 8310 [1]: √ (A black check mark indicates efficacy of 30% to 70% or higher protein degradation)
Degradation of C-MYC, combination with MDM2 ligand 8312 [1]: √ (A black check mark indicates efficacy of 30% to 70% or higher protein degradation)

c-MYC degradation [2, 5]: no degradation was observed
SMILES: CCc1ccc(/C=C2\SC(=O)N(Cc3cccc(B(O)O)c3)C2=O)cc1 [MYC-E1]
Degradation of C-MYC, combination with CRBN ligand 8046 [1]: √ (A black check mark indicates efficacy of 30% to 70% or higher protein degradation)
Degradation of C-MYC, combination with CRBN ligand 8066 ([1]; Table 7, aryl-boronic acid MYC ligand + 8066): √ (A black check mark indicates efficacy of 30% to 70% or higher protein degradation)
c-MYC degradation [2, 3]: Some degradation is seen; also recorded: causes degradation of c-MYC
c-MYC degradation [2, 4]: Some degradation is seen; also recorded: no degradation was observed

c-MYC degradation [2, 3]: no degradation was observed
c-MYC degradation [2, 4]: caused degradation of c-MYC
c-MYC degradation [2, 5]: no degradation was observed
SMILES: O=[N+]([O-])c1ccc(Nc2ccccc2-c2ccc(B(O)O)cc2)c2nonc12 [MYC-E6]
Degradation of C-MYC, combination with CRBN ligand 8046 [1]: √ (A black check mark indicates efficacy of 30% to 70% or higher protein degradation)
Degradation of C-MYC, combination with CRBN ligand 8047 [1]: √ (A black check mark indicates efficacy of 30% to 70% or higher protein degradation)

c-MYC degradation [2, 3]: caused c-MYC degradation
c-MYC degradation [2, 6]: caused degradation of c-MYC
c-MYC degradation ([2]; 1:1 with VHL ligand 8305, HT29, 24 h, 10 nM-10 μM each): caused loss of c-MYC protein
SMILES: O=C(NCc1cccc(B(O)O)c1)c1ccc(Nc2ccc([N+](=O)[O-])c3nonc23)cc1 [MYC-E10]
Degradation of C-MYC, combination with CRBN ligand 8046 [1]: √ (A black check mark indicates efficacy of 30% to 70% or higher protein degradation)

SMILES: Cc1ccc(CNC(=O)c2ccccc2Nc2ccc([N+](=O)[O-])c3nonc23)cc1B(O)O [MYC-E16]
Degradation of C-MYC, combination with CRBN ligand 8047 [1]: √ (A black check mark indicates efficacy of 30% to 70% or higher protein degradation)
c-MYC degradation [2, 4]: Some degradation is seen; also recorded: caused c-MYC degradation

SMILES: O=C(NCc1ccc(Cl)c(B(O)O)c1)c1ccccc1Nc1ccc([N+](=O)[O-])c2nonc12 [MYC-E18]
Degradation of C-MYC, combination with CRBN ligand 8046 [1]: √ (A black check mark indicates efficacy of 30% to 70% or higher protein degradation)

c-MYC degradation [2, 7]: caused c-MYC degradation
c-MYC degradation [2, 8]: there is no degradation of c-MYC
SMILES: CCc1ccc(/C=C2\SC(=O)N(CCc3cccc(O)c3O)C2=O)cc1 [MYC-N4]
Degradation of C-MYC, combination with CRBN ligand 8048 [1]: √ (A black check mark indicates efficacy of 30% to 70% or higher protein degradation)

c-MYC degradation [2, 8]: there is no degradation of c-MYC
SMILES: CCc1ccc(/C=C2\SC(=O)N(CCNC(=O)c3ccc(O)c(O)c3)C2=O)cc1 [MYC-N7]
Degradation of C-MYC, combination with CRBN ligand 8049 [1]: √ (A black check mark indicates efficacy of 30% to 70% or higher protein degradation)
c-MYC degradation [2, 7]: cause c-MYC protein degradation; also recorded: caused degradation of c-MYC
c-MYC degradation ([2]; 1:1 with CRBN ligand 8049, HT29, 24 h, 10 nM-10 μM each): cause c-MYC protein degradation; also recorded: caused degradation of c-MYC

SMILES: CCc1ccc(/C=C2\SC(=O)N(CCNC(=O)c3cccc(O)c3O)C2=O)cc1 [MYC-N08]
Degradation of C-MYC, combination with VHL ligand 8297 [1]: √ (A black check mark indicates efficacy of 30% to 70% or higher protein degradation)
Degradation of C-MYC, combination with VHL ligand 8298 [1]: √ (A black check mark indicates efficacy of 30% to 70% or higher protein degradation)

SMILES: O=[N+]([O-])c1ccc(Nc2cccc(O)c2O)c2nonc12 [MYC-N11]
Degradation of C-MYC, combination with CRBN ligand 8048 [1]: √ (A black check mark indicates efficacy of 30% to 70% or higher protein degradation)

SMILES: O=C(NCc1ccc(O)c(O)c1)c1ccccc1Nc1ccc([N+](=O)[O-])c2nonc12 [MYC-N15]
Degradation of C-MYC, combination with CRBN ligand 8048 [1]: √ (A black check mark indicates efficacy of 30% to 70% or higher protein degradation)
Degradation of C-MYC, combination with CRBN ligand 8049 [1]: √ (A black check mark indicates efficacy of 30% to 70% or higher protein degradation)

c-MYC degradation [2, 7]: caused c-MYC degradation
c-MYC degradation ([2]; 1:1 with VHL ligand 8297, HT29, 24 h, 10 nM-10 μM each): caused degradation of c-MYC
c-MYC degradation [2, 6]: caused degradation of c-MYC
SMILES: O=C(NCc1cccc(O)c1O)c1ccccc1Nc1ccc([N+](=O)[O-])c2nonc12 [MYC-N16]
Degradation of C-MYC, combination with CRBN ligand 8048 [1]: √ (A black check mark indicates efficacy of 30% to 70% or higher protein degradation)
Degradation of C-MYC, combination with MDM2 ligand 8312 [1]: √ (A black check mark indicates efficacy of 30% to 70% or higher protein degradation)
Degradation of C-MYC, combination with VHL ligand 8297 [1]: √ (A black check mark indicates efficacy of 30% to 70% or higher protein degradation)
Degradation of C-MYC, combination with VHL ligand 8298 [1]: √ (A black check mark indicates efficacy of 30% to 70% or higher protein degradation)
c-MYC degradation [2, 8]: there is no degradation of c-MYC; also recorded: no loss of c-MYC protein was observed

SMILES: O=C(NCc1ccc(O)c(O)c1)c1ccc(Nc2ccc([N+](=O)[O-])c3nonc23)cc1 [MYC-N17]
Degradation of C-MYC, combination with VHL ligand 8298 [1]: √ (A black check mark indicates efficacy of 30% to 70% or higher protein degradation)

SMILES: O=C(NCCN1C(=O)C/C(=C\c2ccc(F)cc2)C1=O)[C@H]1C[C@@H]2C[C@H]1[C@@H](O)[C@H]2O [MYC-N30]
Degradation of C-MYC, combination with CRBN ligand 8048 [1]: √ (A black check mark indicates efficacy of 30% to 70% or higher protein degradation)
Degradation of C-MYC, combination with CRBN ligand 8049 [1]: √ (A black check mark indicates efficacy of 30% to 70% or higher protein degradation)
